Source: patent US20220281886A1, “NATRIURETIC PEPTIDE RECEPTOR A AGONISTS USEFUL FOR THE TREATMENT OF CARDIOMETABOLIC DISEASES, KIDNEY DISEASE AND DIABETES” (Merck Sharp & Dohme Corp., priority 2019, published 2022)

Biological target: T1, hNPRA (Homo sapiens, UniProt P16066)
T1 construct: expressed in transfected cells
T1 sequence (P16066 33-1061): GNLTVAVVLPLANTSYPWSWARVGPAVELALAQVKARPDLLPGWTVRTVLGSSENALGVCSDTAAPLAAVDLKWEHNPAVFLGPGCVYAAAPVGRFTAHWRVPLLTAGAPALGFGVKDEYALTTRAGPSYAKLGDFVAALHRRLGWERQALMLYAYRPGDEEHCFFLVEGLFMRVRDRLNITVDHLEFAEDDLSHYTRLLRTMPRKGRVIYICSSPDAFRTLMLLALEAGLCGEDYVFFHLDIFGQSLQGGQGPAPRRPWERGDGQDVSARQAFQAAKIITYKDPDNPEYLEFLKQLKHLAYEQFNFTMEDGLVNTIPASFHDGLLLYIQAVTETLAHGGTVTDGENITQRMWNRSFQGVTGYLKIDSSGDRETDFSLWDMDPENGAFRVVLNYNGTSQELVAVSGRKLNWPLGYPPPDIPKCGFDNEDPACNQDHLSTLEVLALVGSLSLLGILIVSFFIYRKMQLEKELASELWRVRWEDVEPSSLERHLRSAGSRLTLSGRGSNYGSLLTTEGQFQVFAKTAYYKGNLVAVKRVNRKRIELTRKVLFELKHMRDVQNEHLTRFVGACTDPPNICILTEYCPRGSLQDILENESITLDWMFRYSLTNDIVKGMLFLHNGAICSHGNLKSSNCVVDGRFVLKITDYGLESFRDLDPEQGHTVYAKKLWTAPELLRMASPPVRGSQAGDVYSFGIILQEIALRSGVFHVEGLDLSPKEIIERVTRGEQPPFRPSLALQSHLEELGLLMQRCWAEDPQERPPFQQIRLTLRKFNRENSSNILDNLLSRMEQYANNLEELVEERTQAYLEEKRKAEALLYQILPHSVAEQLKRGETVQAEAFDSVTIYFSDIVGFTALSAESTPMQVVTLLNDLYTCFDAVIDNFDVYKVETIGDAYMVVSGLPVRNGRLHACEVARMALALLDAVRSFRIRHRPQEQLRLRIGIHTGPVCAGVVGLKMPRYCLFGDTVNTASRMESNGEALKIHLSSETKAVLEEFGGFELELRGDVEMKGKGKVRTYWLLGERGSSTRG
Test: NPRA Functional Cell Assay (cGMP HTRF)
Assay type: cell-based
Conditions: Human NPRA HEK JumpIn stable cells; cGMP by HTRF after 1 hour at 37° C.; 10-point dose response
Text: Assay Buffer components HEPES and Opti-MEM® I Reduced-Serum with Glutamine (no phenol red) were from Gibco/Invitrogen (Thermo Fisher Scientific, Waltham, Mass. USA). 3-Isobutyl-1-methylxanthine (IBMX) and 4-(3-Butoxy-4-methoxybenzyl)imidazolidin-2-one (RO20) were obtained from Sigma-Aldrich (St. Louis, Mo., USA). DPBS (Dulbecco's phosphate-buffered saline) without Ca2+ and Mg2+ was purchased from GE Healthcare Bio-Sciences (Pittsburgh, Pa., USA). 384 well white Optiplates were from Perkin Elmer (Atlantic Highlands, N.J., USA). Human ANP (Atrial Natriuretic Peptide) (1-28) was purchased from Sigma-Aldrich (Catalog #A1663) and rat ANP (1-28) from Bachem (Torrance, Calif., USA) (Catalog #H2100). Human-BNP (Human-Brain Natriuretic Peptide) (1-32 AA) was purchased from American Peptide Company (Sunnyvale, Calif., USA) (product No. 14-1-90). cGMP kits were purchased from Cisbio. The assay ready frozen (ARF) Human/rat/dog NPRA HEK JumpIn Stable frozen cells (low passage number 5-11) were prepared in-house.
Test compounds were titrated in DMSO in a 10-point dose response in a separate step followed by a 100-fold dilution into the reaction. Positive response for each assay was determined using 10 nM rat-ANP peptide (rat cells) or 50 nM h-ANP peptide (human and dog cells).
Cells were thawed, washed with DPBS and resuspended in assay buffer (Opti-MEM+Glutamine, phenol red free media, 10 mM HEPES, 100 uM IBMX and 100 uM RO20) that was warmed to 37° C. Cells were then transferred to microplates via a Microplate Combi dispenser at a density of 1500, 400 and 1200 cells/well for human, rat and dog cells respectively, followed by acoustic transfer (Echo) of compound.
(§1) Compounds and cells were incubated at 37° C. with 5% CO2 for 1 hour, after which the cells were lysed and cGMP was captured using a CisBio cGMP HTRF assay kit. The TRF signal was measured with an Envision plate reader (emission set to 615 and 665 nm) after 1 hour incubation at ambient temperature. The TRF signal was converted to [cGMP] through the use of a cGMP calibration curve on each microplate. EC50's were generated from the resulting dose response curves by use of a 4 parameter logistic algorithm.
Assay Buffer components HEPES and Opti-MEM® I Reduced-Serum with Glutamine (no phenol red) were from Gibco/Invitrogen. 3-Isobutyl-1-methylxanthine (IBMX) and 4-(3-Butoxy-4-methoxybenzyl)imidazolidin-2-one (RO20) were obtained from Sigma. DPBS (Dulbecco's phosphate-buffered saline) without Ca2+ and Mg2+ was purchased from GE Healthcare Bio-Sciences (Pittsburgh, Pa., USA). 384 well white Optiplates were from Perkin Elmer (Atlantic Highlands, N.J., USA). Human ANP (1-28) was purchased from Sigma (A1663) and rat ANP (1-28) from Bachem (H2100). Human-BNP (1-32 AA) was purchased from American Peptide Company (Sunnyvale, Calif., USA) (product No. 14-1-90). cGMP kits were purchased from Cisbio (Bedford, Mass., USA). The assay ready frozen (ARF) Human/rat/dog NPRA HEK JumpIn Stable frozen cells (low passage number 5-11) were prepared in-house.
as §1, with “Envision®” for “Envision”, “(Perkin Elmer)(emission” for “(emission”
hNPRA EC50 (nM) are were determined for the compounds of Example 1 through 273 and are reported in the Experimental section of this application.

Compound	EC50 [nM]
COCCCC1CCN(CC[C@@H](NC(=O)c2cc(F)c3nc4c(cc3c2)C[C@](F)(C(C)C)CC4)c2ccc(-c3ccnnc3)nc2)CC1 (racemic) [Example 51, rac-(7S)-4,7-difluoro-7-isopropyl-N-[rac-(1R)-3-[4-(3-methoxypropyl)-1-piperidyl]-1-(6-pyridazin-4-yl-3-pyridyl)propyl]-6,8-dihydro-5H-acridine-2-carboxamide]	175
CC(C)[C@]1(F)CCc2nc3c(F)cc(C(=O)N[C@H](CCN4CCC5(O)CCCCC5C4)c4ccc(-c5ccnnc5)nc4)cc3cc2C1 (mixture of isomers) [Example 52, rac-(7S)-4,7-difluoro-7-isopropyl-N-[rac-(1R)-3-(4a-hydroxy-1,3,4,5,6,7,8,8a-octahydroisoquinolin-2-yl)-1-(6-pyridazin-4-yl-3-pyridyl)propyl]-6,8-dihydro-5H-acridine-2-carboxamide]	258
CC(C)[C@]1(F)CCc2nc3c(F)cc(C(=O)N[C@H](CCN4CCCCC4CCO)c4ccc(-c5ccnnc5)nc4)cc3cc2C1 (mixture of isomers) [Example 53, rac-(7S)-4,7-difluoro-7-isopropyl-N-[rac-(1R)-3-[2-(2-hydroxyethyl)-1-piperidyl]-1-(6-pyridazin-4-yl-3-pyridyl)propyl]-6,8-dihydro-5H-acridine-2-carboxamide]	98.1
CC(C)[C@]1(F)CCc2nc3c(F)cc(C(=O)N[C@H](CCN4CCC5(CCCO5)CC4)c4ccc(-c5ccnnc5)nc4)cc3cc2C1 (racemic) [Example 55, rac-(7S)-4,7-difluoro-7-isopropyl-N-[rac-(1R)-3-(1-oxa-8-azaspiro[4.5]decan-8-yl)-1-(6-pyridazin-4-yl-3-pyridyl)propyl]-6,8-dihydro-5H-acridine-2-carboxamide]	344

Further lines, results first:

EC50 [nM]	Compound
188	CC(C)[C@]1(F)CCc2nc3c(F)cc(C(=O)N[C@H](CCN4CCC(C(C)(C)O)CC4)c4ccc(-c5ccnnc5)nc4)cc3cc2C1 (racemic) [Example 47, rac-(7S)-4,7-difluoro-7-isopropyl-N-[rac-(1R)-3-[4-(1-hydroxy-1-methyl-ethyl)piperidin-1-ium-1-yl]-1-(6-pyridazin-4-yl-3-pyridyl)propyl]-6,8-dihydro-5H-acridine-2-carboxamide;2,2,2-trifluoroacetate]
105	CC(C)[C@]1(F)CCc2nc3c(F)cc(C(=O)N[C@H](CCN4CCC5(CC[C@H](O)C5)CC4)c4ccc(-c5ccnnc5)nc4)cc3cc2C1 (racemic) [Example 48, rac-(7S)-4,7-difluoro-7-isopropyl-N-[rac-(1R)-1-(6-pyridazin-4-yl-3-pyridyl)-3-[rac-(3S)-3-hydroxy-8-azaspiro[4.5]decan-8-yl]propyl]-6,8-dihydro-5H-acridine-2-carboxamide]
98.5	CC(C)[C@]1(F)CCc2nc3c(F)cc(C(=O)N[C@H](CCN4CCC5(CC[C@@H](O)C5)CC4)c4ccc(-c5ccnnc5)nc4)cc3cc2C1 (racemic) [Example 49, rac-(7S)-4,7-difluoro-7-isopropyl-N-[rac-(1R)-1-(6-pyridazin-4-yl-3-pyridyl)-3-[rac-(3R)-3-hydroxy-8-azaspiro[4.5]decan-8-yl]propyl]-6,8-dihydro-5H-acridine-2-carboxamide]
240	CC(C)[C@]1(F)CCc2nc3c(F)cc(C(=O)N[C@H](CCN4CCC5(CC4)COC5)c4ccc(-c5ccnnc5)nc4)cc3cc2C1 (racemic) [Example 50, rac-(7S)-4,7-difluoro-7-isopropyl-N-[rac-(1R)-3-(2-oxa-7-azaspiro[3.5]nonan-7-yl)-1-(6-pyridazin-4-yl-3-pyridyl)propyl]-6,8-dihydro-5H-acridine-2-carboxamide]
91.1	CC(C)[C@]1(F)CCc2nc3c(F)cc(C(=O)N[C@H](CCN4CCC(C(O)C5(CO)CC5)CC4)c4ccc(-c5ccnnc5)nc4)cc3cc2C1 (mixture of isomers) [Example 54, rac-(7S)-4,7-difluoro-7-isopropyl-N-[rac-(1R)-3-[4-[hydroxy-[1-(hydroxymethyl)cyclopropyl]methyl]-1-piperidyl]-1-(6-pyridazin-4-yl-3-pyridyl)propyl]-6,8-dihydro-5H-acridine-2-carboxamide]
